These antisense oligonucleotides have a phosphorothioate backbone; sugars and methylation of C are not fully specified.
Legend:
SRA1 = conditions: ASO
[1] = ASO
Note: test concentration or dose not given here.

Row | Sequence | remaining target (mRNA or protein) (fraction of control) (SRA1) | remaining target (mRNA or protein) (fraction of control) [1]
1 | AAAACAGACTCCTCTTTT | 0.54 | –
2 | AAACTTGTGGGCTCCACG | 0.18 | –
3 | AACCGAGGATTATGAAGC | 0.57 | –
4 | AACTGCGGCGGGTCGTTC | ≥ 1 | –
5 | AACTTTCCTCCAGCCCAC | 0.21 | –
6 | AAGGAGGTGGAGGCCCCA | 0.72 | –
7 | ACACATGAACTCCCTCTG | 0.77 | –
8 | ACATACCTGCTTCCTTGT | ≥ 1 | –
9 | ACATGGTCAACCATGAGG | 0.54 | –
10 | ACCACTCCCCACAGGTGG | ≥ 1 | –
11 | ACCATCCACTGACTGACC | ≥ 1 | –
12 | ACCCTCTTGGTAAGCAGC | ≥ 1 | –
13 | ACCTGCTTCCTTGTGTGG | 0.32 | –
14 | ACGCCAGAGGCAGGACCA | 0.55 | –
15 | ACTGGGAAACTTGTGGGC | ≥ 1 | –
16 | AGAGGCAGGACCACTCCC | 0.92 | –
17 | AGCGGTGGATGTCATCTG | 0.65 | –
18 | AGGCCCAGGAGAAGTCTC | 0.61 | –
19 | AGTCGAGCCTCAGACTCG | 0.72 | –
20 | ATCCTCCATCAGTCGAGC | ≥ 1 | –
21 | ATCTGCTGCGTCCCACCG | 0.9 | –
22 | ATGAGGGAGCGGTGGATG | ≥ 1 | –
23 | ATGCATGTTATGAGTAAC | ≥ 1 | –
24 | ATTTGAGGAGATGGTGTC | 0.94 | –

Row | Sequence | remaining target (mRNA or protein) (fraction of control) (SRA1) | remaining target (mRNA or protein) (fraction of control) [1]
25 | CAACTTTCCTCCAGCCCA | 0.41 | –
26 | CAATGCCTGTTCCAAAGG | 0.91 | –
27 | CAGAGGTTTGCAGATACA | 0.35 | –
28 | CAGCACATCCTCCATCAG | 0.61 | –
29 | CAGGGAGCAGGGCAGTCG | 0.35 | –
30 | CAGTGCCAGGCGTCGGCT | 0.66 | –
31 | CATCACATACCTGCTTCC | 0.68 | –
32 | CATCCAAACACAGCTGCT | 0.39 | –
33 | CATGGTCAACCATGAGGG | ≥ 1 | –
34 | CCACCGGTGGCTTGAAAG | 0.85 | –
35 | CCAGCAGATCCCTTCCTG | ≥ 1 | –
36 | CCAGCCGCGTTCCTTGTT | 0.69 | –
37 | CCAGTAGAGCCATTCTCT | 0.83 | –
38 | CCATTCTCTTCTTTACAG | 0.6 | –
39 | CCCCACTCAATGTGGTTC | 0.31 | –
40 | CCCGGCTTCACGTACAGC | 0.63 | –
41 | CCGCGTTCCTTGTTGCCG | 0.94 | –
42 | CCTCTGAAAACAGACTCC | 0.71 | –
43 | CCTGCTGGAAGCCTGGTA | ≥ 1 | –
44 | CCTGCTTCCTTGTGTGGC | 0.66 | –
45 | CCTGGGTCCGCCGGCCTG | 0.86 | –
46 | CCTTGTGTGGCCACGGCA | 0.43 | –
47 | CGAGCGCCTGGGTCCGCC | 0.48 | –
48 | CGGCAGTCTTCCAATGCC | ≥ 1 | –

Row | Sequence | remaining target (mRNA or protein) (fraction of control) (SRA1) | remaining target (mRNA or protein) (fraction of control) [1]
49 | CGTATGAGAACTGCGGCG | ≥ 1 | –
50 | CGTCGGCTGATGTCATCA | 0.61 | –
51 | CTCAGCTGTGGCTGCAGA | ≥ 1 | –
52 | CTCCAGCCCACTGTTCCT | ≥ 1 | –
53 | CTCCATCAGTCGAGCCTC | ≥ 1 | –
54 | CTCCTACCATCCACTGAC | 0.46 | –
55 | CTCGACTGGGAAACTTGT | 0.63 | –
56 | CTCTGGCCCAGGTGGGAC | 0.55 | –
57 | CTGAAAACAGACTCCTCT | 0.56 | –
58 | CTGACCTCAGTCACATGG | ≥ 1 | –
59 | CTGCTGCGTCCCACCGGT | 0.21 | –
60 | CTGCTGGAAGCCTGGTAT | 0.77 | –
61 | CTTCATTGGCTGCCTCCT | 0.2 | –
62 | CTTCCCTCATAGGTGGGT | ≥ 1 | –
63 | CTTTCCTCCAGCCCACTG | 0.36 | –
64 | CTTTCCTTTTGTTGAGGG | ≥ 1 | –
65 | CTTTTAACTCCTACCATC | 0.43 | –
66 | CTTTTCTGCAATTAATCT | 0.61 | –
67 | GACACCAGAGGGACTAGC | 0.73 | –
68 | GACCACTCCCCACAGGTG | ≥ 1 | –
69 | GAGCCTCAGACTCGACTG | 0.65 | –
70 | GAGGCCCAGGAGAAGTCT | 0.62 | –
71 | GAGGCCCGGAACTCCACT | 0.89 | –
72 | GAGGGAGCGGTGGATGTC | 0.48 | –

Row | Sequence | remaining target (mRNA or protein) (fraction of control) (SRA1) | remaining target (mRNA or protein) (fraction of control) [1]
73 | GAGGGTCCATACTAAGCG | 0.53 | –
74 | GCACCAGTAGAGCCATTC | 0.3 | –
75 | GCCAGAGGCAGGACCACT | 0.72 | –
76 | GCCAGGCGTCGGCTGATG | 0.38 | –
77 | GCTCCACGCCAGAGGCAG | 0.49 | –
78 | GCTCCGCCCAGCACAGGA | 0.37 | –
79 | GCTGTGGCTGCAGATTTC | 0.48 | –
80 | GCTTGAAAGCTCTTGCAC | ≥ 1 | –
81 | GGGTCCGTTCCCTCAACA | – | ≥ 1
82 | GGTAGGTCGTAGAAGATG | – | ≥ 1
83 | GGTGGTGGAGTGCATAAGAG | – | 0.98
84 | GTAAGTCCAGGAGATAGC | – | 0.86
85 | GTAGATGAGGGCGATCAC | – | ≥ 1
86 | GTCCAGCCACTGCAGTGGCC | – | 0.82
87 | GTCCAGGTAGCGGGCGAG | – | ≥ 1
88 | GTCCCAGAACCCTGCCCA | – | ≥ 1
89 | GTCCCCCGACTCCCTTGC | – | 0.27
90 | GTCCCTGCACCCCTAGTC | – | ≥ 1
91 | GTCTTCAGTGTTTTCATT | – | ≥ 1
92 | GTGGAGTGCATAAGAGGCCA | – | 0.84
93 | GTGGTTGCGTGCCGATTCAC | – | 0.5
94 | GTGTAGTGGCTGAAAAGG | – | ≥ 1
95 | GTTCATTCCATTCAGTTG | – | 0.87
96 | GTTCCAGGATAGTCCCAA | – | 0.34

Row | Sequence | remaining target (mRNA or protein) (fraction of control) (SRA1) | remaining target (mRNA or protein) (fraction of control) [1]
97 | GTTGATCTCGTCCAGGTA | – | 0.28
98 | TAAGAGGCCACAGCAGGCTC | – | 0.42
99 | TAGATGCACTTGGAGCGA | – | ≥ 1
100 | TATTATCGAGTGACTGGT | – | ≥ 1
101 | TCAACTTCTTTTGCCGAA | – | 0.62
102 | TCACAGCAGGTTGATCTC | – | ≥ 1
103 | TCAGCATCCTGCTTAGGG | – | ≥ 1
104 | TCATGGCCCGCATGGACA | – | 0.7
105 | TCCATTTCTTACGCTCTG | – | ≥ 1
106 | TCCCAGGGTGTGCGTCAC | – | ≥ 1
107 | TCCTTGCCTGAAACACCC | – | ≥ 1
108 | TCGGCGGTGGCAAGGCTT | – | 0.97
109 | TCTCCTCCAGGCACTGGT | – | 0.18
110 | TCTCCTTCATGCGGTTCT | – | 0.61
111 | TGAAGATGAATCTCAATCCA | – | 0.88
112 | TGATTTCTTCACCTTTTC | – | ≥ 1
113 | TGCACCAGTGGCTCGGCT | – | ≥ 1
114 | TGCATAAGAGGCCACAGCAG | – | 0.44
115 | TGCGCTCCTCCTCCGAGT | – | ≥ 1
116 | TGCTGTCACTCACGCACTCG | – | 0.57
117 | TGCTTGTGGGCCGCGATT | – | 0.24
118 | TGGAGAGATAGACCAGGA | – | 0.67
119 | TGGGGGTGGTGGAGTGCATA | – | 0.53
120 | TGGTGGAGTGCATAAGAGGC | – | 0.47

Row | Sequence | remaining target (mRNA or protein) (fraction of control) (SRA1) | remaining target (mRNA or protein) (fraction of control) [1]
121 | TGTCCTGGTGAGAGGCAG | – | 0.73
122 | TGTCTGGGTCCACCGTGC | – | 0.45
123 | TGTGGGCCGAGGCTGGAG | – | 0.85
124 | TGTTAAGACACTGAAGAAAT | – | ≥ 1
125 | TTACGCTCTGACTTCTGG | – | 0.81
126 | TTATAAGCCAAAGTGCGT | – | ≥ 1
127 | TTATTCATACCGTTGTTG | – | 0.96
128 | TTCAAGTCTTCTTCCAAT | – | 0.85
129 | TTCAATGGCTTCCACGAG | – | 0.94
130 | TTCGCCGCACCGACTCGC | – | 0.9
131 | TTCTCATCCTCCGTCAGG | – | ≥ 1
132 | TTCTCCTCCAGGCACTGG | – | ≥ 1
133 | TTCTCCTGTCCACTAGAG | – | 0.98
134 | TTCTGGCACTTTCTATGA | – | 0.72
135 | TTCTGTGTGTCTGTGGCA | – | 0.19
136 | TTGCCCAACCACTCGTTC | – | 0.45
137 | TTGCTCTCGGGCCTGCTG | – | 0.21
138 | TTGGTATCGATAGCACTACA | – | 0.96
139 | TTTCTATCGTTGAGTTTCTG | – | ≥ 1
140 | TTTCTCATTGCCTTCACG | – | ≥ 1
141 | TTTCTGCACGGAGAAGCA | – | 0.26

From the OligoGym collection
